Activity calls are given as the source filed them. The calls are words filed in the database; no cut-off is given here.
Experiments:
Mus musculus [1] = test: Antiinflammatory activity in mouse model of LPS-induced acute lung injury assessed as reduction in BALF protein at 5 mg/kg, ip administered immediately or 6 hrs after LPS stimulation; assay type: functional; parameters: scale not given: the % may be the effect or the level left
Mus musculus [2] = test: Antiinflammatory activity in mouse model of LPS-induced acute lung injury assessed as reduction in BALF protein at 38 mg/kg, iv; assay type: functional, organism-based
Mus musculus [3] = test: Antiinflammatory activity in mouse model of LPS-induced acute lung injury assessed as reduction in total cell count in BALF at 64 mg/kg, iv; assay type: functional, organism-based
Mus musculus [4] = test: Antiinflammatory activity in mouse model of LPS-induced acute lung injury assessed as reduction in BALF protein at 64 mg/kg, iv; assay type: functional, organism-based
[5] = Toxicity in multidrug-resistant Pseudomonas aeruginosa infected mouse model of pneumonia assessed as improvement in animal survival at 38 mg/kg, sc administered once daily for 6 days; assay type: organism-based; settings: in vivo, 144 h, time 6 day
[6] = Toxicity in multidrug-resistant Pseudomonas aeruginosa infected mouse model of pneumonia assessed as improvement in animal survival at 64 mg/kg, sc administered once daily for 6 days; assay type: organism-based; settings: in vivo, 144 h, time 6 day
Mus musculus [7] = test: Antiinflammatory activity in mouse model of LPS-induced acute lung injury assessed as reduction in total cell count in BALF at 38 mg/kg, iv; assay type: functional, organism-based
[8] = Solubility in water; assay type: physicochemical
[9] = Volume of distribution in Sprague-Dawley rats at 1.4 mg/kg, iv; assay type: ADME, organism-based; settings: rat, in vivo
[10] = Terminal half-life in Sprague-Dawley rats at 1.4 mg/kg, iv; assay type: ADME, organism-based; settings: rat, in vivo, read-out: beta t1/2 (converted)
[11] = Clearance in Sprague-Dawley rats at 1.4 mg/kg, iv; assay type: ADME, organism-based; settings: rat, in vivo

Work on `C[C@@H]1C[C@H]2[C@@H]3CCC4=CC(=O)C=C[C@]4(C)[C@@]3(F)[C@@H](O)C[C@]2(C)[C@@]1(O)C(=O)CO` [DEXAMETHASONE] yielded an Activity (Mus musculus [1]) of 37%.
In the case of `Cc1ccc(-c2c[nH]c3c(-c4ccc(Cl)cc4)c(Cc4ccccc4)nn3c2=O)c(OP(=O)([O-])[O-])c1.[Na+].[Na+]`, the Activity (Mus musculus [2]) is reported as “Active”, the Activity (Mus musculus [3]) is reported as “Active” and the Activity (Mus musculus [4]) is reported as “Active”. For the same compound, the Activity [5] was “Non-Toxic”, the Activity [6] was “Non-Toxic” and the Activity (Mus musculus [7]) was “Active”. The solubility [8] was over 50 µM.
`Cc1ccc(-c2cc(=O)[nH]c3c(-c4ccc(Cl)cc4)c(Cc4ccccc4)nn23)c(OP(=O)(O)O)c1` gave a solubility [8] of over 50 µM.
In the case of `O=c1c(-c2ccc(F)cc2OP(=O)([O-])[O-])c[nH]c2c(-c3ccc(Cl)cc3)c(Cc3ccccc3)nn12.[Na+].[Na+]`, the solubility [8] is reported as over 50 µM.
`NCCCC[C@H](N)C(=O)Oc1cc([N+](=O)[O-])ccc1-c1cc(=O)[nH]c2c(-c3ccc(Cl)cc3)c(Cc3ccccc3)nn12` showed a Vd [9] of 0.383 L/kg, a half-life [10] of 10.9 h and a clearance [11] of 0.417 mL/min/kg.
In the case of `Cc1ccc(-c2cc(=O)[nH]c3c(-c4ccc(Cl)cc4)c(Cc4ccccc4)nn23)c(OP(=O)([O-])[O-])c1.[Na+].[Na+]`, the solubility [8] is reported as over 50 µM.
For `Cc1ccc(-c2c[nH]c3c(-c4ccc(Cl)cc4)c(Cc4ccccc4)nn3c2=O)c(O)c1`, the solubility [8] was under 1 µM.

Reference: ChEMBL document CHEMBL5052829, “Arf6 inhibitors and related methods” (2021)
